Where “and” joins values, the source holds several entries; their conditions need not be identical. Equal values may be shown once. Entries after “also recorded” stand apart in the source; their conditions may differ. Read-outs that look alike come from different tables or passages of the source.
What was measured:
[1] = test system: rats receiving infusion of fentanyl; set-up: species or system Sprague-Dawley rat; conditions: rat, in vivo
[2] = test system: unanesthetized rats receiving continuous intravenous infusion of fentanyl; set-up: species or system Sprague Dawley rat; conditions: rat, in vivo
[3] = test system: rats given bolus injections of fentanyl or morphine; conditions: rat, in vivo
[4] = test system: unanesthetized rats receiving continuous intravenous infusion of fentanyl; set-up: species or system Sprague Dawley rat; conditions: rat, in vivo; remark: listed apart in the source
[5] = test system: unanesthetized rats receiving continuous intravenous infusion of fentanyl; set-up: species or system Sprague Dawley rat; conditions: rat, in vivo; remark: listed apart in the source
[6] = test system: unanesthetized rats receiving continuous intravenous infusion of fentanyl; set-up: species or system Sprague Dawley rat; conditions: rat, in vivo; remark: listed apart in the source
[7] = test system: freely moving rats injected with morphine; test: Ventilatory responses to morphine and subsequent injections of L-NACme; type: in vivo, rat
[8] = after morphine 10 mg/kg IV, two injections of L-NACme 500 μmol/kg IV
[9] = before morphine, group later given L-NACme
[10] = morphine 10 mg/kg IV, before L-NACme

Structure (SMILES): CC(=O)N[C@@H](CS)C(=O)O [L-NAC, N-acetyl-L-cysteine]
- Fecal output, number of pellets, total weight (words, FIG. 13C-D) [1]: normalized by L-NAC injections
- Urine and fecal parameters (words, FIG. 13) [1]: did not affect parameters in vehicle-infused rats
- EEP, actual value [2]: 45.4 ms
- EF50, baseline [2]: 0.36 ± 0.03 mL/s
- EIP, actual value [2]: 7.9 ms
- Effect on Freq, TV and MV (words, FIG. 1) [2]: immediate and sustained increase in these parameters to levels approaching (Freq and MV) and actually reaching (TV) pre-infusion levels; also recorded: did not further boost Freq whereas it did boost TV and therefore MV
- Effect on NEBI (words, FIG. 11) [2]: noticeable decrease in NEBI
- Effect on PEF (words, FIG. 4) [2]: substantial and sustained increases in PEF
- Effect on PIF (words, FIG. 4) [2]: sustained partial recover of PIF
- Effect on Te (words, FIG. 2) [2]: prevented this increase in Te
- Effect on Ti/Te (words, FIG. 2) [2]: sustained elevation in Ti/Te compared to vehicle-injected rats
- Effect on expiratory drive (words, FIG. 5) [2]: immediate, substantial and sustained increases in expiratory dive
- End Expiratory Pause, baseline [2]: 44.3 ± 4.0
- ExpD TV/Te, actual value [2]: 5.5 mL/s
- Expiratory Drive (TV/Te), baseline [2]: 5.5 ± 0.3 mL/s
- Expiratory Time (Te), baseline [2]: 0.443 ± 0.022 s
- Freq, actual value [2]: 102 breaths/min
- Frequency of Breathing (Freq), baseline [2]: 102 ± 5 breaths/min
- InspD (TV/Ti), actual value [2]: 12.4 mL/s
- Inspiratory Drive (TV/Ti), baseline [2]: 12.4 ± 0.6 mL/s
- Inspiratory Time (Ti), baseline [2]: 0.200 ± 0.010 s
- Level of NEBI (words, FIG. 11) [2]: not noticeably different from those that received the second injection of vehicle
- MV, actual value [2]: 247 mL/min
- Minute Ventilation, baseline [2]: 247 ± 14 mL/min
- NEBI, actual value [2]: 2.6%
- PEF, actual value [2]: 11.2
- PIF/PEF, actual value [2]: 1.61
- PIF/PEF, baseline [2]: 1.63 ± 0.11
- Pause, (Te/RT) − 1, baseline [2]: 0.40 ± 0.08
- Pause, (Te/RT)-1, actual value [2]: 0.40
- Peak Expiratory Flow (PEF), baseline [2]: 11.2 ± 0.7 mL/s
- Peak Inspiratory Flow (PIF), baseline [2]: 17.6 ± 1.1 mL/s
- RT, actual value [2]: 0.32 s
- Relaxation Time (RT), baseline [2]: 0.32 ± 0.02 s
- TV, actual value [2]: 2.42 mL
- Te − RT, baseline [2]: 0.12 ± 0.02
- Te, actual value [2]: 0.44 s
- Te-RT, actual value [2]: 0.12
- Ti, actual value [2]: 0.20 s
- Ti/Te, actual value [2]: 0.46
- Ti/Te, baseline [2]: 0.46 ± 0.02
- Tidal Volume, baseline [2]: 2.42 ± 0.05 mL
- Total (cumulative) change in NEBI (words, FIG. 7) [2]: virtually eliminated NEBI
- Total (cumulative) change in PEF (words, FIG. 7) [2]: pronounced increase in PEF
- Total (cumulative) change in expiratory drive (words, FIG. 7) [2]: converted the decrease in expiratory drive (ExpD) to an increase
- EF50, total percent change ([2]; iv): +57.6 ± 11.3%
- EIP, actual value ([2]; iv): 20.2 ms and 19.7 ms
- EIP, arithmetic change ([2]; iv): +12 msec
- End Expiratory Pause, total percent change ([2]; iv): +9.1 ± 6.3%
- End Inspiratory Pause, total percent change ([2]; iv): +147.0 ± 12.9%
- ExpD TV/Te, actual value ([2]; iv): 4.6 mL/s and 6.9 mL/s and 8.1 mL/s
- Expiratory Drive (TV/Te), total percent change ([2]; iv): −14.6 ± 3.1%
- Expiratory Time (Te), total percent change ([2]; iv): −10.3 ± 3.5%
- Freq, actual value ([2]; iv): 78 breaths/min and 90 breaths/min and 89 breaths/min
- Frequency of Breathing (Freq), total percent change ([2]; iv): −21.6 ± 2.4%
- InspD (TV/Ti), actual value ([2]; iv): 4.8 mL/s and 6.6 mL/s and 7.9 mL/s
- Inspiratory Drive (TV/Ti), total percent change ([2]; iv): −56.3 ± 2.7%
- Inspiratory Time (Ti), total percent change ([2]; iv): +82.5 ± 14.1%
- MV, actual value ([2]; iv): 135 mL/min and 210 mL/min and 241 mL/min
- Minute Ventilation, total percent change ([2]; iv): −39.9 ± 2.7%
- NEBI, actual value ([2]; iv): 2.0% and 1.0% and 1.3%
- NEBI, arithmetic change ([2]; iv): −0.6% and −1.6% and −1.3%
- PEF, actual value ([2]; iv): 11.2 and 13.8 and 15.3
- PIF/PEF, actual value ([2]; iv): 0.82 and 0.84 and 0.93
- PIF/PEF, total percent change ([2]; iv): −42.1 ± 4.7%
- Pause, (Te/RT) − 1, total percent change ([2]; iv): +348.6 ± 67.4%
- Pause, (Te/RT)-1, actual value ([2]; iv): 1.32 and 0.94
- Peak Expiratory Flow (PEF), total percent change ([2]; iv): −2.2 ± 2.8%
- Peak Inspiratory Flow (PIF), total percent change ([2]; iv): −44.0 ± 3.7%
- RT, actual value ([2]; iv): 0.17 s and 0.18 s
- Relaxation Time (RT), total percent change ([2]; iv): −41.4 ± 4.6%
- TV, actual value ([2]; iv): 1.73 mL and 2.34 mL and 2.71 mL
- Te − RT, total percent change ([2]; iv): +129.9 ± 28.2%
- Te, actual value ([2]; iv): 0.38 s and 0.34 s
- Te-RT, actual value ([2]; iv): 0.21 and 0.17 and 0.16
- Ti, actual value ([2]; iv): 0.36 s and 0.35 s
- Ti/Te, actual value ([2]; iv): 0.96 and 1.06 and 1.05
- Ti/Te, total percent change ([2]; iv): +104.4 ± 11.6%
- Tidal Volume, total percent change ([2]; iv): −23.5 ± 2.5%
- Effect of bolus L-NAC on bolus opioid [3]: completely without effect
- Righting reflex, time to get back on all four paws [4]: 4.6 ± 1.5 s
- A-a gradient [5]: 17.9 ± 0.7 mmHg
- Arterial blood pH [5]: 7.442 ± 0.008
- Beneficial effects on ABG chemistry and A-a gradient (words, FIG. 9) [5]: still evident 30 min after the second injection of L-NAC
- pCO2 [5]: 35.7 ± 0.03 mmHg
- pO2 [5]: 92.1 ± 0.07 mmHg
- sO2 [5]: 99.0 ± 0.4%
- A-a gradient ([5]; iv): 27.6 ± 0.8 mmHg and 23.1 ± 1.3 mmHg and 26.1 ± 1.5 mmHg
- Arterial blood pH ([5]; iv): 7.162 ± 0.026 and 7.392 ± 0.006 and 7.443 ± 0.013
- pCO2 ([5]; iv): 57.3 ± 1.5 mmHg and 36.2 ± 1.1 mmHg and 35.2 ± 0.4 mmHg
- pO2 ([5]; iv): 58.4 ± 1.9 mmHg and 86.3 ± 1.6 mmHg and 84.5 ± 1.4 mmHg
- sO2 ([5]; iv): 59.1 ± 1.8% and 93.6 ± 0.9% and 92.4 ± 1.2%
- Actual TFL values [6]: 11.9 ± 0.1 s and 11.5 ± 0.1 s

Structure (SMILES): CCOC(=O)[C@H](CS)NC(C)=O [L-NACme, N-acetyl-L-cysteine ethyl ester]
- Frequency, Drug - entire 75 min, % change [7, 8]: +11 ± 2 %
- Minute Ventilation, Drug - entire 75 min, % change [7, 8]: −19 ± 4 %
- Tidal Volume, Drug - entire 75 min, % change [7, 8]: −22 ± 3 %
- Frequency, Pre values [7, 9]: 98 ± 4
- Minute Ventilation, Pre values [7, 9]: 259 ± 17
- Tidal Volume, Pre values [7, 9]: 2.61 ± 0.16
- Frequency, Morphine - first 15 min response (%) [7, 10]: −4.9 ± 2.8%
- Frequency, Morphine - peak (+) response (%) [7, 10]: +42 ± 6 %
- Frequency, Morphine peak (−) response (%) [7, 10]: −22 ± 4 %
- Minute Ventilation, Morphine - first 15 min response (%) [7, 10]: −35 ± 3 %
- Minute Ventilation, Morphine - peak (+) response (%) [7, 10]: +20 ± 6 %
- Minute Ventilation, Morphine peak (−) response (%) [7, 10]: −54 ± 4 %
- Tidal Volume, Morphine - first 15 min response (%) [7, 10]: −34 ± 3 %
- Tidal Volume, Morphine - peak (+) response (%) [7, 10]: −16 ± 6 %
- Tidal Volume, Morphine peak (−) response (%) [7, 10]: −40 ± 6 %

— US20260256723A1, “THIOL-BASED COMPOUNDS AND COMPOSITIONS AND USES THEREOF” (CASE WESTERN RESERVE UNIVERSITY, priority 2022, published 2026)
